Data from publication PMC9090415, “Discovery of small molecule inhibitors of Plasmodium falciparum apicoplast DNA polymerase” (Journal of Enzyme Inhibition and Medicinal Chemistry, 2022).

Target: P. falciparum apicoplast DNA polymerase (Pf-apPOL) (Plasmodium falciparum, UniProt Q8ILY1)
Assay: Fluorescence-based high-throughput DNA polymerase assay (molecular beacon), primary screen and dose-response;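 as to % inhibition ApPOL 90': test concentration in µM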;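 as to % inhibition apPOL 180': test concentration in µM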
Format: biochemical
Conditions: for DNA Pol: 90 min, 10 µM
Procedure, shortened: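 Single-point screening used 10 µM compound with 20 nM polymerase, 20 nM hairpin substrate and 6 µM dNTPs for 90 min at 25 °C. Confirmatory titrations (2.5–80 µM) followed fluorescence at three times, and IC50 was derived from a fit including a cooperativity term n.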

[1] = primary screen value by plate and well
[2] = primary screen value of the 186 hits, unit not given

P. falciparum apicoplast DNA polymerase (Pf-apPOL), sequence (Q8ILY1 entry or part of it): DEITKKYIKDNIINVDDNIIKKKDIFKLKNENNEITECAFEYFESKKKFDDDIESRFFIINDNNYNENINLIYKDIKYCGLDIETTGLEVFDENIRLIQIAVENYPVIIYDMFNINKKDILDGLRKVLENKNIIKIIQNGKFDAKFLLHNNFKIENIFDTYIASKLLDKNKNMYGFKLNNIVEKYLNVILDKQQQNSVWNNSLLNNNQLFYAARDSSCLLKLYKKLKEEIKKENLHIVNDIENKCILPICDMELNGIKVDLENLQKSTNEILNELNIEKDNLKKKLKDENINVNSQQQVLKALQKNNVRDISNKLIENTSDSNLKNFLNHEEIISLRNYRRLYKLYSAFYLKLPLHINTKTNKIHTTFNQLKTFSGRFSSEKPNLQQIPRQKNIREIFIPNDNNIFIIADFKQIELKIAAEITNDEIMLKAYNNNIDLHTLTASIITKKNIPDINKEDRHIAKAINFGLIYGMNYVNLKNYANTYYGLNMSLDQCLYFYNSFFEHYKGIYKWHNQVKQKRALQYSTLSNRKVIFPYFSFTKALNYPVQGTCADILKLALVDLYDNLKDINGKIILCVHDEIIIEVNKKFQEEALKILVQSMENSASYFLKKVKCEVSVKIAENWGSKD

SMILES: Cc1cccc(-c2nnc3ccc(NS(=O)(=O)c4ccc(C)c(C)c4)nn23)c1 [Molecule 40, Cc1cccc(c1)c1nnc2n1nc(cc2)NS(=O)(=O)c1ccc(c(c1)C)C]
- % inhibition Apo pol 10' (DRC-1, concentration 2.5): 17.5333%
- % inhibition Apo pol 10' (DRC-1, concentration 5): 15.8571%
- % inhibition Apo pol 10' (DRC-1, concentration 10): 58.8718%
- % inhibition Apo pol 10' (DRC-1, concentration 20): 64.4117%
- % inhibition Apo pol 10' (DRC-1, concentration 40): 83.8171%
- % inhibition Apo pol 10' (DRC-1, concentration 80): 87.6455%
- % inhibition Apol 90' (DRC-1, concentration 2.5): 8.645%
- % inhibition Apol 90' (DRC-1, concentration 5): 6.674%
- % inhibition Apol 90' (DRC-1, concentration 10): 42.202%
- % inhibition Apol 90' (DRC-1, concentration 20): 48.6788%
- % inhibition Apol 90' (DRC-1, concentration 40): 74.666%
- % inhibition Apol 90' (DRC-1, concentration 80): 86.8335%
- % inhibition apPOL 180' (DRC-1, concentration 2.5): 2.98%
- % inhibition apPOL 180' (DRC-1, concentration 5): 3.293%
- % inhibition apPOL 180' (DRC-1, concentration 10): 32.359%
- % inhibition apPOL 180' (DRC-1, concentration 20): 37.8584%
- % inhibition apPOL 180' (DRC-1, concentration 40): 67.3017%
- % inhibition apPOL 180' (DRC-1, concentration 80): 87.5255%
- % inhibition Apo pol 5' (DRC-2, concentration 2.5): 5%
- % inhibition Apo pol 5' (DRC-2, concentration 5): 15%
- % inhibition Apo pol 5' (DRC-2, concentration 10): 22%
- % inhibition Apo pol 5' (DRC-2, concentration 20): 26%
- % inhibition Apo pol 5' (DRC-2, concentration 40): 22%
- % inhibition Apo pol 5' (DRC-2, concentration 80): 17%
- % inhibition Apol 40' (DRC-2, concentration 2.5): 4.3%
- % inhibition Apol 40' (DRC-2, concentration 5): 18%
- % inhibition Apol 40' (DRC-2, concentration 10): 30%
- % inhibition Apol 40' (DRC-2, concentration 20): 44%
- % inhibition Apol 40' (DRC-2, concentration 40): 51%
- % inhibition Apol 40' (DRC-2, concentration 80): 53%
- % inhibition ApPOL 90' (DRC-2, concentration 2.5): 3.29%
- % inhibition ApPOL 90' (DRC-2, concentration 5): 17%
- % inhibition ApPOL 90' (DRC-2, concentration 10): 29%
- % inhibition ApPOL 90' (DRC-2, concentration 20): 46%
- % inhibition ApPOL 90' (DRC-2, concentration 40): 57%
- % inhibition ApPOL 90' (DRC-2, concentration 80): 62%
- % inhibition apPOL 180' (DRC-2, concentration 2.5): -0.478%
- % inhibition apPOL 180' (DRC-2, concentration 5): 11%
- % inhibition apPOL 180' (DRC-2, concentration 10): 23%
- % inhibition apPOL 180' (DRC-2, concentration 20): 40%
- % inhibition apPOL 180' (DRC-2, concentration 40): 60%
- % inhibition apPOL 180' (DRC-2, concentration 80): 68%
- % inhibition ApPOL 90' (conc. 5, DRC-2): 17%
- % inhibition Apo pol 5' (conc. 10, DRC-2): 22%
- % inhibition Apo pol 5' (conc. 40, DRC-2): 22%
- % inhibition Apo pol 5' (conc. 80, DRC-2): 17%
- DNA Pol [1]: 50
- DNA Pol [2]: 50

SMILES: Cc1cc(C)c(O)c(/N=C/c2cc([N+](=O)[O-])cc(Br)c2O)c1 [KU0046272]
- % inhibition Apo pol 10' (DRC-1, concentration 2.5): 3.169%
- % inhibition Apo pol 10' (DRC-1, concentration 5): -1.228%
- % inhibition Apo pol 10' (DRC-1, concentration 10): 12.3955%
- % inhibition Apo pol 10' (DRC-1, concentration 20): 36.9804%
- % inhibition Apo pol 10' (DRC-1, concentration 40): 60.3951%
- % inhibition Apo pol 10' (DRC-1, concentration 80): 90.16%
- % inhibition Apol 90' (DRC-1, concentration 2.5): -6.623%
- % inhibition Apol 90' (DRC-1, concentration 5): -11.6285%
- % inhibition Apol 90' (DRC-1, concentration 10): 2.689%
- % inhibition Apol 90' (DRC-1, concentration 20): 23.1885%
- % inhibition Apol 90' (DRC-1, concentration 40): 44.716%
- % inhibition Apol 90' (DRC-1, concentration 80): 85.7846%
- % inhibition apPOL 180' (DRC-1, concentration 2.5): -11.4225%
- % inhibition apPOL 180' (DRC-1, concentration 5): -16.1751%
- % inhibition apPOL 180' (DRC-1, concentration 10): -3.511%
- % inhibition apPOL 180' (DRC-1, concentration 20): 14.6468%
- % inhibition apPOL 180' (DRC-1, concentration 40): 35.3485%
- % inhibition apPOL 180' (DRC-1, concentration 80): 85.8895%
- % inhibition Apo pol 5' (DRC-2, concentration 2.5): 7%
- % inhibition Apo pol 5' (DRC-2, concentration 5): 6%
- % inhibition Apo pol 5' (DRC-2, concentration 10): 4.64%
- % inhibition Apo pol 5' (DRC-2, concentration 20): 17%
- % inhibition Apo pol 5' (DRC-2, concentration 40): 41%
- % inhibition Apo pol 5' (DRC-2, concentration 80): 54%
- % inhibition Apol 40' (DRC-2, concentration 2.5): 2%
- % inhibition Apol 40' (DRC-2, concentration 5): 4.73%
- % inhibition Apol 40' (DRC-2, concentration 10): 4%
- % inhibition Apol 40' (DRC-2, concentration 20): 19%
- % inhibition Apol 40' (DRC-2, concentration 40): 47%
- % inhibition Apol 40' (DRC-2, concentration 80): 72%
- % inhibition ApPOL 90' (DRC-2, concentration 2.5): 1%
- % inhibition ApPOL 90' (DRC-2, concentration 5): 3.45%
- % inhibition ApPOL 90' (DRC-2, concentration 10): 2.43%
- % inhibition ApPOL 90' (DRC-2, concentration 20): 20%
- % inhibition ApPOL 90' (DRC-2, concentration 40): 47%
- % inhibition ApPOL 90' (DRC-2, concentration 80): 75%
- % inhibition apPOL 180' (DRC-2, concentration 2.5): -0.688%
- % inhibition apPOL 180' (DRC-2, concentration 5): 1.3%
- % inhibition apPOL 180' (DRC-2, concentration 10): 1.29%
- % inhibition apPOL 180' (DRC-2, concentration 20): 17%
- % inhibition apPOL 180' (DRC-2, concentration 40): 40%
- % inhibition apPOL 180' (DRC-2, concentration 80): 75%
- % inhibition Apo pol 5' (conc. 20, DRC-2): 17%
- % inhibition apPOL 180' (conc. 20, DRC-2): 17%
- % inhibition Apol 40' (conc. 40, DRC-2): 47%
- % inhibition ApPOL 90' (conc. 40, DRC-2): 47%
- % inhibition ApPOL 90' (conc. 80, DRC-2): 75%
- % inhibition apPOL 180' (conc. 80, DRC-2): 75%
- DNA Pol [1]: 45
- DNA Pol [2]: 45
